Assay results taken from US20040014814A1, “Compositions and methods for delaying preventing rejuvenating or reversing senescence in cells” (priority 2000, published 2004).

What was measured:
MRC-5 cells [1] = assay: Effect of carnosine derivatives on cell growth / toxicity in MRC-5 cell cultures; type: cell-based, human; set-up: key to Effect on cell growth (score): (0) Toxic to cell growth; (10) Confluent cell growth; conditions: for Effect on cell growth (score): MRC-5 cells, scale 0 toxic to 10 confluent; for Cell Growth: summary grade
Experimental: (§1) MRC -5 cells (fetal lung fibroblasts) were grown in Dulbecco's modification of Eagles' minimum essential medium (DMEM Gibco BRL Cat. No. 12800-017) containing 0.45% glucose, or MEM (Gibco BRL Cat. No. 612800-017) containing 0.1% glucose. Both media contained 10% fetal calf scrum (TRACE Biosciences Cat. No. 15-010-0500V) and Penicillin/Streptomycin 5000 IU, 5000 μg/ml (TRACE Biosciences Cat. No. 21-140-0100V). Cells were grown in […] flasks or in dishes (35 mm or 60 mm, Nunc) at 37° C. with 5% CO2. Cells were harvested with trypsin (TRACE Biosciences Cat. No. 21-163-0100V) and counted with a model ZF6 Coulter Counter. Cells were split in ratios of 1:2 or 1:4. Population doublings (PDs) were calculated from the ratio of the initial number of cells plated to the yield of cells after a period of time. This provides an accurate measure of cell growth, with the split ratios 1:2 and 1:4 corresponding to one and two passages respectively, which are broadly equivalent to population doublings. The media was changed every 5 days or when cells became confluent.
MRC-5 cells were used to observe the toxicity of a series of derivatives of carnosine on cell growth. Cell cultures were grown in DMEM media with 10% fetal calf serum and supplemented with the following carnosine analogues: carnosine ethyl ester, carnosine iso-propyl ester, carnosine n-butyl ester, carnosine n-hexyl ester, N-propyl carnosine, N-hexanoyl carnosine, N-trimethyl acetyl carnosine, N-acetyl carnosine methyl ester, N-acetyl carnosine ethyl ester and N-acetyl carnosine, […] Cells were also grown in DMEM supplemented with carnosine at 20 mM. […] Even at lower concentrations cell morphology was that of cells that have reached senescence i.e. broad flat cells with long process reaching out to other cells. Cell numbers were less than in the control flasks. […] As shown in FIG. 1 Acetyl-carnosine achieved a lifespan 5 PDs greater than the control and 6.7 PDs greater than carnosine over a 43 day period. […] In the early phase of the experiment growth rates were markedly greater than with the other compounds (FIG. 1).

MRC-5 cells [2] = assay: Lifespan (population doublings) of MRC-5 cells in culture; type: cell-based, human; set-up: key to Lifespan extension: 0 = zero effect; 10 = maximum effect; conditions: for Lifespan of MRC-5 cells in culture, Population Doublings (PD): commenced at passage 55; for Lifespan extension: summary grade
Experimental: Cultures were split in a 1:4 ratio when flasks were approximately 70-80% confluent.
as §1
MRC-5 cells were used to observe the toxicity of a series of derivatives of carnosine on cell growth. Cell cultures were grown in DMEM media with 10% fetal calf serum and supplemented with the following carnosine analogues: carnosine ethyl ester, carnosine iso-propyl ester, carnosine n-butyl ester, carnosine n-hexyl ester, N-propyl carnosine, N-hexanoyl carnosine, N-trimethyl acetyl carnosine, N-acetyl carnosine methyl ester, N-acetyl carnosine ethyl ester and N-acetyl carnosine, at concentrations ranging between 1 mM to 20 mM. Cells were also grown in DMEM supplemented with carnosine at 20 mM. […] Even at lower concentrations cell morphology was that of cells that have reached senescence i.e. broad flat cells with long process reaching out to other cells. Cell numbers were less than in the control flasks. […] As shown in FIG. 1 Acetyl-carnosine achieved a lifespan 5 PDs greater than the control and 6.7 PDs greater than carnosine over a 43 day period. […] In the early phase of the experiment growth rates were markedly greater than with the other compounds (FIG. 1).
In fact all populations of MRC-5 cells grown in DMEM supplemented with acetyl-carnosine preserved a younger phenotype for much longer than cells grown in DMEM supplemented with carnosine or its analogues.
Under control conditions the range was 57.3-64.5 PDs (n=5). With the addition of carnosine (20mM) to the medium the range was 61.8-63.7 PDs (n=5) with an average increase of 1.4 PDs which represents a 3 fold increase in cell number. However, when acetyl-carnosine (5 mM) was added to the medium, the range was 62.3-70.3 PDs (n=5) with an average increase of 5 PDs compared with the controls. This represents a 32 fold increase in cell number.

corneal epithelial cells = assay: Uptake of radio-labeled (3H) compounds in fresh bovine eyes (corneal epithelium into aqueous humour); type: in vitro ADME; conditions: after 4 hours
Experimental: Radio-labeled (3H) carnosine and acetyl-carnosine were assayed for their rate of uptake using fresh bovine eyes and MRC-5 fibroblast cultures. For bovine eyes small cylinders (radius 3.5mm and height 8mm) placed on top of the eye formed a fix seal with the corneal epithelial cells. 200 microlitres of the radio-labeled compounds in 5mM unlabeled compound in phosphate buffered saline were instilled onto the eye and at different time points 600 μl of aqueous humour was aspirated using a 25 gauge needle for counting in the scintillation counter.
The uptake experiments were repeated using fresh bovine eyes.

human blood peptidases = assay: Stability in human blood serum / attack by human blood peptidases; type: in vitro ADME; conditions: human blood serum
[3] = Fate of compound after cellular uptake; type: cell-based; conditions: compared with acetyl-carnosine
Experimental: Experiments were conducted to determine the fate of acetyl-carnosine and carnosine after cellular uptake. […] A slower metabolism and incorporation into other proteins may be one reason for acetyl-carnosine having higher effective intracellular concentrations compared with carnosine despite its lower overall uptake.

MRC-5 cells [4] = system: MRC-5 cells; set-up: Cell and eye uptake assay: key to the marks not given beside the values
MRC-5 cells [5] = conditions: carnosine supplemented media; cited from earlier work
senescent MRC-5 cells = conditions: 20 mM; PCT/AU91/00541; cited from earlier work
[6] = system: UV-Induced Immuno-suppression; set-up: key: 0 = zero effect; 10 = maximum effect; conditions: footnote (3) Australian provisional PQ 5150; cited from earlier work
MRC-5 cells [7] = assay: Uptake of radio-labeled (3H) compounds by MRC-5 fibroblast cells; conditions: MRC-5 cells, after 48 hours
Experimental: For MRC-5 cells, (3H)—carnosine and acetyl carnosine were added to the medium of near confluent 60mm culture dishes. At different time points cells were washed three times with phosphate buffered saline, cells harvested and cell-associated radioactivity determined using Packard Starscint scintillation fluid.
The rate of uptake of carnosine and acetyl-carnosine by MRC-5 cells was studied using radio-labeled tritiated (3H) carnosine and acetyl-carnosine compounds. The uptake was measured in MRC-5 cells at passage 28 over a 48 hour period (FIG. 3A).

| Compound | Effect on cell growth (score) (MRC-5 cells [1]; 0.5 mM) | Effect on cell growth (score) (MRC-5 cells [1]; 1 mM) | Effect on cell growth (score) (MRC-5 cells [1]; 2 mM) | Effect on cell growth (score) (MRC-5 cells [1]; 5 mM) | Effect on cell growth (score) (MRC-5 cells [1]; 10 mM) | Effect on cell growth (score) (MRC-5 cells [1]; 20 mM) | Lifespan of MRC-5 cells in culture, Population Doublings (PD) (MRC-5 cells [2]; 5 mM) | Lifespan extension (MRC-5 cells [2]) | Cell Growth (MRC-5 cells [1]) | other results |
| --- | --- | --- | --- | --- | --- | --- | --- | --- | --- | --- |
| CCCCCC(=O)NCCC(=O)N[C@@H](Cc1c[nH]cn1)C(=O)O [N-hexanoyl carnosine] | 6 | 6 | 5 | 4 | 3 | 3 | 10.8 | 0 | – | – |
| CC(C)(C)C(=O)NCCC(=O)NC(Cc1cnc[nH]1)C(=O)O (centres unmarked) [N-trimethyl acetyl carnosine] | 6 | 6 | 5 | 4 | 3 | 3 | 9.4 | 0 | – | – |
| NCCC(=O)N[C@@H](Cc1cnc[nH]1)C(=O)O [Carnosine, β-alanyl-L-histidine, reference compound] | – | – | – | 5 | 6 | 7 | – | – | – | Range of lifespans of populations of MRC-5 cells (MRC-5 cells [2]; 20 mM in medium, n=5): 61.8-63.7 PDs; Lifespan of MRC-5 cells in culture, Population Doublings (PD) (MRC-5 cells [2]; 20 mM): 8.5 PD; Average increase in lifespan compared with controls (MRC-5 cells [2]; 20 mM, n=5): 1.4 PDs; Increase in cell number (MRC-5 cells [2]; 20 mM, worked out from the PD increase): 3 fold; Increase in cell mass (MRC-5 cells [2]; cells exposed to supplemented media): 3 fold; Uptake of (3H) compound into aqueous humour (corneal epithelial cells): 1.3%; Uptake relative to acetyl-carnosine (corneal epithelial cells): 2 times; Stability in human blood serum (human blood peptidases): rapidly destroyed; Incorporation of label into higher molecular weight proteins after uptake [3]: more rapidly incorporated into higher molecular weight proteins; Cell and eye uptake assay (MRC-5 cells [4]): ++++; Uptake of (3H) compound by MRC-5 cells (MRC-5 cells [4]; human, 48 h): 0.32%; Uptake relative to acetyl-carnosine (MRC-5 cells [4]; human, 48 h): 2 times; Increase in cell mass reported by McFarland & Holliday (MRC-5 cells [5]): 12 fold; Effect on senescent MRC-5 cells transferred to supplemented medium (senescent MRC-5 cells): rejuvenated; UV immuno suppression: post irradiation assay (3) [6]: 0; Number of cells growing in supplemented media (MRC-5 cells [7]): 2.4×10^6 |
| CC(C)OC(=O)[C@H](Cc1cnc[nH]1)NC(=O)CCN [Carnosine iso-propyl ester, carnosine iso-propyl ester] | – | – | 2 | 0 | 0 | 0 | – | – | TOXIC | – |
| CCOC(=O)C(Cc1cnc[nH]1)NC(=O)CCNC(C)=O (centres unmarked) [N-acetyl carnosine ethyl ester] | 6 | 5 | 4 | 4 | 2 | 0 | – | – | – | – |
| CCCCCCOC(=O)[C@H](Cc1c[nH]cn1)NC(=O)CCN [carnosine n-hexyl ester] | – | – | 3 | 1 | 0 | 0 | – | – | TOXIC | – |
| CCCCOC(=O)[C@@H](Cc1cnc[nH]1)NC(=O)CCN [Carnosine n-butyl ester, carnosine n-butyl ester] | – | – | 5 | 5 | 2 | 0 | – | – | TOXIC | – |
| N-propyl carnosine | 6 | 6 | 5 | 4 | 3 | 2 | 11.0 | 0 | – | – |
| COC(=O)C(Cc1cnc[nH]1)NC(=O)CCNC(C)=O (centres unmarked) [N-acetyl carnosine methyl ester] | 6 | 6 | 5 | 5 | 5 | 0 | – | – | – | – |
| CCOC(=O)[C@H](Cc1cnc[nH]1)NC(=O)CCN [Carnosine ethyl ester, carnosine ethyl ester] | – | – | 5 | 5 | 4 | 3 | – | – | – | – |
